Assay results taken from ChEMBL document CHEMBL1134310, “3-(Arylacetylamino)-N-methylbenzamides: a novel class of selective anti-Helicobacter pylori agents” (2001).
≈ marks a conversion by molar mass, not a printed value.

Key:
Type in all cases: functional
[1] = system: Helicobacter pylori; assay: Minimum inhibitory concentration against Helicobacter pylori.
[2] = system: Helicobacter pylori; assay: Minimum inhibitory concentration against Helicobacter pylori under acidic conditions at pH 5.0
[3] = system: Helicobacter pylori; assay: Minimum inhibitory concentration against Helicobacter pylori under acidic conditions at pH 6.0
[4] = system: Helicobacter pylori; assay: Minimum inhibitory concentration against Helicobacter pylori under acidic conditions at pH 7.0

SMILES	MIC [1] [mg/L]	other results
CNC(=O)c1cccc(NC(=O)Cc2ccc(Cl)cc2)c1	0.78 (≈ 2.58 µM)	
CNC(=O)c1cccc(NC(=O)OCc2ccc3ccccc3c2)c1	0.1 (≈ 0.299 µM)	
CCNC(=O)c1cccc(NC(=O)Cc2cccc(Br)c2)c1	3.12 (≈ 8.64 µM)	
CNC(=O)c1cccc(NC(=O)Cc2cccc([N+](=O)[O-])c2)c1	3.12 (≈ 9.96 µM)	
CNC(=O)c1cccc(NC(=O)Cc2cccc(F)c2)c1	3.12 (≈ 10.9 µM)	
CNC(=O)c1cccc(NC(=O)OCc2ccc(Cl)cc2)c1	0.2 (≈ 0.627 µM)	
CNC(=O)c1cccc(NC(=O)Cc2cccc(OC)c2)c1	0.78 (≈ 2.61 µM)	
CNC(=O)c1cccc(NC(=O)Cc2cccc(C)c2)c1	0.39 (≈ 1.38 µM)	
CNC(=O)c1cccc(NC(=O)CCc2ccccc2)c1	12.5 (≈ 44.3 µM)	
CNC(=O)c1cccc(NC(=O)Cc2c[nH]c3ccccc23)c1	0.78 (≈ 2.54 µM)	
CNC(=O)c1cccc(NC(=O)Cc2ccc(Br)cc2)c1	0.78 (≈ 2.25 µM)	
CNC(=O)c1cccc(NC(=O)OCc2c(Cl)cccc2Cl)c1	0.2 (≈ 0.566 µM)	
CNC(=O)c1cccc(NC(=O)COc2cccc(Cl)c2Cl)c1	0.39 (≈ 1.1 µM)	
CNC(=O)c1cccc(NC(=O)Cc2ccccc2)c1	1.56 (≈ 5.81 µM)	
CNC(=O)c1cccc(NC(=O)CCc2ccccc2OC)c1	0.78 (≈ 2.5 µM)	
CONC(=O)c1cccc(NC(=O)Cc2cccc(Br)c2)c1	12.5 (≈ 34.4 µM)	
CNC(=O)c1cccc(NC(=O)COc2cccc3ccccc23)c1	0.1 (≈ 0.299 µM)	
O=C(Cc1cccc(Br)c1)Nc1cccc(C(=O)NO)c1	12.5 (≈ 35.8 µM)	
CNC(=O)c1cccc(NC(=O)Cc2cccc(OCc3ccccc3)c2)c1	0.78 (≈ 2.08 µM)	

SMILES	MIC [1] [mg/L]	other results
CNC(=O)c1cccc(NC(=O)Cc2cccc(Cl)c2)c1	0.39 (≈ 1.29 µM)	
CNC(=O)c1cccc(NC(=O)Cc2ccccc2Cl)c1	3.12 (≈ 10.3 µM)	
CNC(=O)c1cccc(NC(=O)COc2ccc3ccccc3c2)c1	0.39 (≈ 1.17 µM)	
CNC(=O)c1cccc(NC(=O)Cc2cccc3ccccc23)c1	0.1 (≈ 0.314 µM)	MIC [2]: 0.125 mg/L (≈ 0.393 µM); MIC [3]: 0.125 mg/L (≈ 0.393 µM); MIC [4]: 0.125 mg/L (≈ 0.393 µM)
CNC(=O)c1cccc(NC(=O)Cc2csc3ccccc23)c1	0.1 (≈ 0.308 µM)	MIC [2]: 0.25 mg/L (≈ 0.771 µM); MIC [3]: 0.25 mg/L (≈ 0.771 µM); MIC [4]: 0.25 mg/L (≈ 0.771 µM)
O=C(Cc1cccc(Br)c1)Nc1cccc(C(=O)O)c1	> 100	
CNC(=O)c1cccc(NC(=O)Cc2ccc3ccccc3c2)c1	0.05 (≈ 0.157 µM)	MIC [2]: 0.063 mg/L (≈ 0.198 µM); MIC [3]: 0.063 mg/L (≈ 0.198 µM); MIC [4]: 0.063 mg/L (≈ 0.198 µM)
CNC(=O)c1cccc(NC(=O)COc2ccccc2)c1	3.12 (≈ 11 µM)	
CNC(=O)c1cccc(NC(=O)Cc2cccc(Br)c2)c1	0.39 (≈ 1.12 µM)	
CCOC(=O)c1cccc(NC(=O)Cc2cccc(Br)c2)c1	> 100	
CNC(=O)c1cccc(NC(=O)CC2CCCCC2)c1	12.5 (≈ 45.6 µM)	
NC(=O)c1cccc(NC(=O)Cc2cccc(Br)c2)c1	100 (≈ 300 µM)	
CNC(=O)c1cccc(NC(=O)Cc2ccc3c(c2)OCO3)c1	0.78 (≈ 2.5 µM)	
CNC(=O)c1cccc(NC(=O)OCc2cccc3ccccc23)c1	0.05 (≈ 0.15 µM)	
CNC(=O)c1cccc(NC(=O)Cc2cccc(O)c2)c1	6.25 (≈ 22 µM)	
CNC(=O)c1cccc(NC(=O)OCc2ccc(C)cc2)c1	0.1 (≈ 0.335 µM)	
CN(C)C(=O)c1cccc(NC(=O)Cc2cccc(Br)c2)c1	25 (≈ 69.2 µM)	
CC1(C)S[C@@H]2[C@H](NC(=O)[C@H](N)c3ccc(O)cc3)C(=O)N2[C@H]1C(=O)O [AMOXICILLIN]		MIC [2]: 0.5 mg/L (≈ 1.37 µM); MIC [3]: 0.125 mg/L (≈ 0.342 µM); MIC [4]: 0.031 mg/L (≈ 0.0848 µM)
CC[C@H]1OC(=O)[C@H](C)[C@@H](O[C@H]2C[C@@](C)(OC)[C@@H](O)[C@H](C)O2)[C@H](C)[C@@H](O[C@@H]2O[C@H](C)C[C@H](N(C)C)[C@H]2O)[C@](C)(OC)C[C@@H](C)C(=O)[C@H](C)[C@@H](O)[C@]1(C)O [CLARITHROMYCIN]	0.05 (≈ 0.0668 µM)	MIC [2]: 2 mg/L (≈ 2.67 µM); MIC [3]: 0.5 mg/L (≈ 0.668 µM); MIC [4]: 0.063 mg/L (≈ 0.0842 µM)
